Results published in PMC10537105, “Derivatives Incorporating Acridine, Pyrrole, and Thiazolidine Rings as Promising Antitumor Agents” (Molecules, 2023).
Where two headings read alike, the source gives them in different places.

Experiments:
COS-7 = experiment: MTT assay, COS-7 normal cells; type: cell-based, monkey; conditions: normal cell line, read-out: IC50 values ± SD, COS-7
Text: (§1) The impact of acridine spiro derivatives 6–10 (Figure 13) on the metabolic activity of various tumor cell lines HCT-116 (human colorectal carcinoma), Jurkat (human leukemia cells), HeLa (human cervical adenocarcinoma), MDA-MB-231, and MCF-7 (human breast adenocarcinoma), and normal cell lines COS-7 (monkey kidney cells) and BJ-5ta (skin fibroblasts) was investigated using the MTT assay. This assay measures the conversion of yellow 3-(4,5-dimethylthiazol-2-yl)-2,5-diphenyltetrazolium bromide (MTT) to insoluble purple formazan by metabolically active cells. The antiproliferative activities of the tested compounds were determined based on the results from the MTT assay, and the inhibitory concentration values (IC50) are presented in Table 5.
(§2) The human cancer cell lines employed in this study were sourced from reputable institutions, including the American Type Culture Collection (ATCC; Manassas, VA, USA) and the European Collection of Authenticated Cell Cultures (ECACC, Salisbury, UK). Specifically, HeLa (93021013, human cervical adenocarcinoma), HCT116 (CCL-247TM, human colorectal carcinoma), and Jurkat (88042803, human leukemic T-cell lymphoma) were cultured in RPMI 1640 medium (Biosera, Kansas City, MO, USA). In contrast, MCF-7 (HTB-22TM, human breast adenocarcinoma, ER+), MDA-MB-231 (HTB-26TM, human breast adenocarcinoma, ER−), and COS-7 (CRL-1651TM, kidney fibroblasts) were nurtured in high-glucose Dulbecco’s Modified Eagle Medium (DMEM) supplemented with sodium pyruvate (Biosera). Furthermore, BJ-5ta (CRL-4001TM, human dermal fibroblasts) was cultured in a composite medium of high-glucose DMEM and M199 (4:1) (Biosera), supplemented with Hygromycin B (0.01 mg/mL; Merck, Darmstadt, Germany). All culture media were enriched with a 10% fetal bovine serum (FBS; Gibco, Thermo Scientific, Rockford, IL, USA) and an antibiotic/antimycotic solution (Merck) to ensure optimal growth conditions. The cells were meticulously maintained within a humidified environment containing 5% CO2 at 37 °C. Regular screenings for mycoplasma contamination were conducted using Hoechst 33342 staining (Merck), confirming the integrity of the cell lines.
(§3) To assess the antiproliferative impact of the synthesized compounds 6–10, their half-maximal inhibitory concentration (IC50) and the MTT colorimetric assay were employed. MDA-MB-231 and MCF-7 cells were seeded into 96-well microplates (SARSTEDT, Nümbrecht, Germany) at a density of 5 × 10^3 cells per well. After 24 h of cell seeding, various concentrations (100, 50, and 10 µmol/L) of acridine derivatives 6–10 were introduced, alongside cisplatin (utilized as a reference) at concentrations of 5, 10, 20, 50, and 100 µmol/L. Subsequent to 24, 48, and 72 h of treatment, the cells in each well underwent incubation with MTT (5 mg/mL, Sigma-Aldrich Chemie, Steinheim, Germany) for 4 h at 37 °C in the dark. During this period, mitochondrial oxidoreductases metabolized MTT, forming insoluble formazan. Following this, 100 µL of SDS (10% […]) was added to dissolve the formazan crystals, and the cells were incubated for an additional 12 h. Absorbance at 540 nm was measured using the automated Cytation™ 3 Cell Imaging Multi-Mode Reader (Biotek, Winooski, VT, USA). Each test was performed in triplicate, and three independent experiments were conducted to ensure precision and reliability.

BJ-5ta = experiment: MTT assay, BJ-5ta normal fibroblasts; type: cell-based, human; conditions: 72 h of incubation, normal cell line, read-out: IC50 values ± SD, BJ-5ta
Text: as §1, §2, §3

Jurkat = experiment: MTT assay, Jurkat cells; type: cell-based, human; conditions: MTT, 72 h of incubation, read-out: IC50 values ± SD, Jurkat
Text: as §1, §2, §3

MDA-MB-231 = experiment: MTT assay, MDA-MB-231 cells; type: cell-based, human; conditions: read-out: IC50 values ± SD, MDA-MB-231
Text: as §1, §2, §3

HeLa = experiment: MTT assay, HeLa cells; type: cell-based, human; conditions: 72 h of incubation, read-out: IC50 values ± SD, HeLa
Text: as §1, §2, §3

MCF-7 = experiment: MTT assay, MCF-7 cells; type: cell-based, human; conditions: read-out: IC50 values ± SD, MCF-7
Text: as §1, §2, §3

HCT-116 = experiment: MTT assay, HCT-116 cells; type: cell-based, human; conditions: MTT, 72 h of incubation, read-out: IC50 values ± SD, HCT-116
Text: as §1, §2, §3

[1] = Primates, COS-7, 72 h of incubation
[2] = Homo sapiens, MDA-MB-231, 72 h of incubation
[3] = Homo sapiens, MCF7, 72 h of incubation

Row | Structure (SMILES) | IC50 (COS-7; [1]) | IC50 (BJ-5ta; Homo sapiens, Fibroblast) | IC50 (Jurkat; Homo sapiens, Jurkat) | melting point | IC50 (MDA-MB-231; [2]) | IC50 (HeLa; Homo sapiens, HeLa) | IC50 (MCF-7; [3]) | IC50 (HCT-116; Homo sapiens, HCT-116) | IC50 (COS-7; 72 h of incubation) | IC50 (BJ-5ta) | IC50 (Jurkat) | IC50 (MDA-MB-231; 72 h of incubation) | IC50 (HeLa) | IC50 (MCF-7; 72 h of incubation) | IC50 (HCT-116)
1 | N#CC1=CC2(c3ccccc3Nc3ccccc32)N(NC(=S)Nc2ccccc2)C1=O [6a, 3-{4′-Cyano-5′-oxo-1′,5′-dihydro-10H-spiro[acridine-9,2′-pyrrol]-1′-yl}-1-phenylthiourea] | > 100 µM | 92.2 ± 1.6 µM | 11.6 ± 4.3 µM | 194 to 195 °C (dec.) | > 100 µM | 67.2 ± 8.65 µM | > 100 µM | 14.3 ± 5.09 µM |  |  |  |  |  |  | 
2 | COc1ccc(NC(=S)NN2C(=O)C(C#N)=CC23c2ccccc2Nc2ccccc23)cc1 [6b, 3-{4′-Cyano-5′-oxo-1′,5′-dihydro-10H-spiro[acridine-9,2′-pyrrol]-1′-yl}-1-(4-methoxyphenyl)thiourea] | > 100 µM | > 100 µM | 39.9 ± 5.19 µM |  | > 100 µM | > 100 µM | > 100 µM | 41.5 ± 4.77 µM |  |  |  |  |  |  | 
3 | N#CC1=CC2(c3ccccc3Nc3ccccc32)N(NC(=S)Nc2ccc(F)cc2)C1=O [6d, 3-{4′-Cyano-5′-oxo-1′,5′-dihydro-10H-spiro[acridine-9,2′-pyrrol]-1′-yl}-1-(4-fluorophenyl)thiourea] | > 100 µM | > 100 µM | 31.8 ± 5.65 µM | 197 to 199 °C (dec.) | > 100 µM | > 100 µM | > 100 µM | 18.9 ± 4.71 µM |  |  |  |  |  |  | 
4 | N#CC1=CC2(c3ccccc3Nc3ccccc32)N(/N=C2\SCC(=O)N2c2ccccc2)C1=O [7a, 5′-Oxo-1′-{[(2Z)-4-oxo-3-phenyl-1,3-thiazolidin-2-ylidene]amino}-1′,5′-dihydro-10H-spiro[acridine-9,2′-pyrrole]-4′-carbonitrile] | > 100 µM | > 100 µM | > 100 µM | 241 to 243 °C (dec.) | > 100 µM | 51.2 ± 3.32 µM | 21.62 ± 0.1 µM | 41.3 ± 2.3 µM |  |  |  |  |  |  | 
5 | COc1ccc(N2C(=O)CS/C2=N\N2C(=O)C(C#N)=CC23c2ccccc2Nc2ccccc23)cc1 [7b, 1′-{[(2Z)-3-(4-Methoxyphenyl)-4-oxo-1,3-thiazolidin-2-ylidene]amino}-5′-oxo-1′,5′-dihydro-10H-spiro[acridine-9,2′-pyrrole]-4′-carbonitrile] | > 100 µM | > 100 µM | > 100 µM | 207 to 210 °C (dec.) | > 100 µM | > 100 µM | 30.8 ± 5.22 µM | > 100 µM |  |  |  |  |  |  | 
6 | COc1cccc(N2C(=O)CS/C2=N\N2C(=O)C(C#N)=CC23c2ccccc2Nc2ccccc23)c1 [7c, 1′-{[(2Z)-3-(3-Methoxyphenyl)-4-oxo-1,3-thiazolidin-2-ylidene]amino}-5′-oxo-1′,5′-dihydro-10H-spiro[acridine-9,2′-pyrrole]-4′-carbonitrile] | 55.2 ± 5.38 µM | 38 ± 1.44 µM | 22.1 ± 0.43 µM | 217 to 220 °C (dec.) | 39.7 ± 2.4 µM | 54 ± 0.72 µM | 45.14 ± 0.04 µM | 24.4 ± 1.31 µM |  |  |  |  |  |  | 
7 | N#CC1=CC2(c3ccccc3Nc3ccccc32)N(/N=C2\SCC(=O)N2c2ccc(F)cc2)C1=O [7d, 1′-{[(2Z)-3-(4-Fluorophenyl)-4-oxo-1,3-thiazolidin-2-ylidene]amino}-5′-oxo-1′,5′-dihydro-10H-spiro[acridine-9,2′-pyrrole]-4′-carbonitrile] | > 100 µM | > 100 µM | > 100 µM | 249 to 252 °C (dec.) | > 100 µM | 62.5 ± 14 µM | 32.5 ± 6.5 µM | 46.6 ± 2.66 µM |  |  |  |  |  |  | 
8 | N#CC1=CC2(c3ccccc3Nc3ccccc32)N(/N=C2\SCC(=O)N2c2ccc([N+](=O)[O-])cc2)C1=O [7e, 1′-{[(2Z)-3-(4-Nitrophenyl)-4-oxo-1,3-thiazolidin-2-ylidene]amino}-5′-oxo-1′,5′-dihydro-10H-spiro[acridine-9,2′-pyrrole]-4′-carbonitrile] | > 100 µM | > 100 µM | 35.5 ± 2.31 µM | 244 to 247 °C (dec.) | > 100 µM | > 100 µM | > 100 µM | 46.2 ± 2.02 µM |  |  |  |  |  |  | 
9 | CCOC(=O)/C=C1\S/C(=N\N2C(=O)C(C#N)=CC23c2ccccc2Nc2ccccc23)N(c2ccc(OC)cc2)C1=O [8b, Ethyl 2-[(2Z,5Z)-2-({4′-cyano-5′-oxo-1′,5′-dihydro-10H-spiro[acridine-9,2′-pyrrol]-1′-yl}imino)-3-(4-methoxyphenyl)-4-oxo-1,3-thiazolidin-5-ylidene]acetate] | 11.5 ± 1.74 µM | 6.82 ± 0.24 µM | 5.67 ± 0.03 µM |  | 7.43 ± 0.72 µM | 16.9 ± 3.5 µM | 12.8 ± 4.24 µM | 5.37 ± 0.01 µM |  |  |  |  |  |  | 
10 | CCOC(=O)/C=C1\S/C(=N\N2C(=O)C(C#N)=CC23c2ccccc2Nc2ccccc23)N(c2ccc(F)cc2)C1=O [8d, Ethyl 2-[(2Z,5Z)-2-({4′-cyano-5′-oxo-1′,5′-dihydro-10H-spiro[acridine-9,2′-pyrrol]-1′-yl}imino)-3-(4-fluorophenyl)-4-oxo-1,3-thiazolidin-5-ylidene]acetate] | 9.45 ± 0.24 µM | 7.32 ± 0.35 µM | 5.64 ± 0.09 µM | 269 to 272 °C (dec.) | 7.85 ± 0.97 µM | 5.97 ± 0.15 µM | 8.52 ± 0.79 µM | 5.46 ± 0.02 µM |  |  |  |  |  |  | 
11 | CCOC(=O)/C=C1\S/C(=N\N2C(=O)C(C#N)=CC23c2ccccc2Nc2ccccc23)N(c2ccc([N+](=O)[O-])cc2)C1=O [8e, Ethyl 2-[(2Z,5Z)-2-({4′-cyano-5′-oxo-1′,5′-dihydro-10H-spiro[acridine-9,2′-pyrrol]-1′-yl}imino)-3-(4-nitrophenyl)-4-oxo-1,3-thiazolidin-5-ylidene]acetate] | 10.2 ± 0.5 µM | 7.07 ± 0.26 µM | 5.6 ± 0.04 µM | 183 to 186 °C (dec.) | 8 ± 1.32 µM | 6.5 ± 0.43 µM | 9.48 ± 0.27 µM | 5.45 ± 0.01 µM |  |  |  |  |  |  | 
12 | CC1S/C(=N\N2C(=O)C(C#N)=CC23c2ccccc2Nc2ccccc23)N(c2ccccc2)C1=O (centres unmarked) [9a, 1′-{[(2Z)-5-Methyl-4-oxo-3-phenyl-1,3-thiazolidin-2-ylidene]amino}-5′-oxo-1′,5′-dihydro-10H-spiro[acridine-9,2′-pyrrole]-4′-carbonitrile] | > 100 µM | > 100 µM | > 100 µM | 245 to 249 °C (dec.) | > 100 µM | > 100 µM | > 100 µM | > 100 µM |  |  |  |  |  |  | 
13 | N.N.[Cl][Pt][Cl] [Cisplatin, cisplatin, reference compound] |  |  |  |  |  |  |  |  | 24.6 ± 1.4 µM | 36 ± 1.87 µM | 8.18 ± 1.6 µM | 7.1 ± 0.9 µM | 35.4 ± 2.5 µM | 26.5 ± 3.19 µM | 12.4 ± 2.1 µM
